# Laboratory results: paper PMC9913174, “Potent Inhibition of Macropinocytosis by Niclosamide in Cancer Cells: A Novel Mechanism for the Anticancer Efficacy for the Antihelminthic” (Cancers, 2023)
# Biological target: SLC38A5 (Homo sapiens, UniProt Q8WUX1)
# Assay: inhibition of Li+-stimulated [3H]-serine uptake in HPAF-II and TXBR-100 cells (endogenous transporter)
# Format: cell-based
# SLC38A5, sequence (Q8WUX1 whole entry): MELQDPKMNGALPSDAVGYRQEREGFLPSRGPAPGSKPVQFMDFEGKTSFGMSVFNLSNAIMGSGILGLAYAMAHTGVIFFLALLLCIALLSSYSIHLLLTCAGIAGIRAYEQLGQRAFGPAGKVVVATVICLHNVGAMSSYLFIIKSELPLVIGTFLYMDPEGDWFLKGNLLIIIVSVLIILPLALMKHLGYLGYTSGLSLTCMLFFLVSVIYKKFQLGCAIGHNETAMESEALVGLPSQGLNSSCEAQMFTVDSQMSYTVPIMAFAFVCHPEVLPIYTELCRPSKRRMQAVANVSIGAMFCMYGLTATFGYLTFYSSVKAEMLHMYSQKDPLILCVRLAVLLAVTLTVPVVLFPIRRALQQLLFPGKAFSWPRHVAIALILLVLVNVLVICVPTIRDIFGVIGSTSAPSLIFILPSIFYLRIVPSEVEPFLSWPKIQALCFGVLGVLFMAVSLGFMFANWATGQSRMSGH
structure (smiles),measurement,value
O=C(Nc1ccc([N+](=O)[O-])cc1Cl)c1cc(Cl)ccc1O [niclosamide],IC50,1000 to 2500 nM
